The NIST ThermoML archive (doi:10.1016/j.fluid.2010.10.009)

Experiments:
[1] = xn = mol fraction of the nth substance listed; settings: 101 kPa, Liquid, Concentric cylinders viscometry
[2] = 303.15 K; 101.33 kPa; Liquid; Concentric cylinders viscometry

CCCCCCC [heptane] + CC(C)(C)O
[1], x2 = 0
Settings | viscosity [mPa·s]
303.15 K | 0.3773
308.15 K | 0.3603
313.15 K | 0.3432
318.15 K | 0.3269
323.15 K | 0.3106

CCCCCCCCC [nonane]
Settings | viscosity [mPa·s]
[2] | 0.6323

CCCCCCCCC [nonane] + CC(C)(C)O
viscosity [mPa·s], [1]
Settings | 303.15 K | 308.15 K | 313.15 K | 318.15 K | 323.15 K
x2 = 0 | 0.6323 | 0.5974 | 0.5652 | 0.5352 | 0.5073
x2 = 0.1012 | 0.6377 | 0.5996 | 0.5644 | 0.532 | 0.502
x2 = 0.2008 | 0.6593 | 0.6177 | 0.5795 | 0.5442 | 0.5114
x2 = 0.3 | 0.6872 | 0.6414 | 0.5995 | 0.5608 | 0.5247
x2 = 0.3999 | 0.7276 | 0.676 | 0.6289 | 0.5857 | 0.5459
x2 = 0.4995 | 0.7904 | 0.7297 | 0.6749 | 0.6251 | 0.5795
x2 = 0.5998 | 0.8796 | 0.8038 | 0.7366 | 0.6766 | 0.6227
x2 = 0.6991 | 1.027 | 0.923 | 0.8336 | 0.7558 | 0.6874
x2 = 0.7997 | 1.297 | 1.136 | 1.003 | 0.8918 | 0.7976
x2 = 0.9 | 1.856 | 1.556 | 1.323 | 1.137 | 0.9883
x2 = 0.9494 | 2.392 | 1.944 | 1.608 | 1.351 | 1.151

CCCCCCCC [octane]
Settings | viscosity [mPa·s]
[2] | 0.4918

CCCCCCCC [octane] + CC(C)(C)O
[1], x2 = 0
Settings | viscosity [mPa·s]
303.15 K | 0.4918
308.15 K | 0.4684
313.15 K | 0.447
318.15 K | 0.425
323.15 K | 0.4049
